According to patent US3997403A, “Antibiotic G-418 and the production thereof” (Schering Corporation, priority 1975, dated 1976):
Where a name gives a salt, the structure may show the parent alone.

What was measured:
E. Histolytica = assay: Oral activity against experimental cecal E. Histolytica infections in rats; assay type: in vivo, male Royal Hart rats; conditions: for A.D.I. (average degree of infection): scale 0 to 4, controls averaged 2.2
Description: Table VII and Table VIII set forth in vivo test results which illustrate the antiprotozoal activity of Antibiotic G-418. The host for the tests were recently weaned male Royal Hart rats (3-4 weeks old) weighing about 50-70 g. The test procedure is a modification of one described by R. J. Schnitzer on pages 355-443 in Experimental Chemotherapy, Vol. 1, Academic Press, New York (1963).
*A.D.I. -- defined as the average degree of infection based upon gross
observations of pathological changes in the cecum and microscopic
observations of the number of amoebae found. These observations are
recorded on a scale of from zero to four, zero representing a
substantially normal cecum. Untreated but infected controls range from
about two to four. In the data set forth the controls averaged 2.2.

[1] = tested on: Bacillus subtilis A.T.C.C. 6633; assay: standard disc plate microbiological assay; assay type: cell-based; conditions: against the standard antibiotic base (1000 mcg/mg)
Description: The assay is a standard disc plate assay using Difco Antibiotic Medium No. 5 and Bacillus subtilis A.T.C.C. 6633 as the test organism. The physical conditions of the test are substantially those described for neomycin (Grove and Randall), Assay Methods of Antibiotics published by Medical Encyclopedia Incorporated (1955). The assay is run against a standard preparation of Antibiotic G-418 having a defined potency of 1000 mcg/mg. […] The standard antibiotic sulfate salt assays about 750 mcg/mg. against the standard antibiotic base.

Row | SMILES | Parasitological Cure Negative/Total (E. Histolytica; oral 3.5 mg/kg/day, 3 days) | A.D.I. (average degree of infection) (E. Histolytica; oral 3.5 mg/kg/day, 3 days) | Parasitological Cure Negative/Total (E. Histolytica; oral 3.5 mg/kg/day, 6 days) | A.D.I. (average degree of infection) (E. Histolytica; oral 3.5 mg/kg/day, 6 days) | Parasitological Cure Negative/Total (E. Histolytica; oral 6.5 mg/kg/day, 1 day) | A.D.I. (average degree of infection) (E. Histolytica; oral 6.5 mg/kg/day, 1 day) | Parasitological Cure Negative/Total (E. Histolytica; oral 6.5 mg/kg/day, 3 days) | A.D.I. (average degree of infection) (E. Histolytica; oral 6.5 mg/kg/day, 3 days) | Parasitological Cure Negative/Total (E. Histolytica; oral 6.5 mg/kg/day, 6 days) | A.D.I. (average degree of infection) (E. Histolytica; oral 6.5 mg/kg/day, 6 days) | Parasitological Cure Negative/Total (E. Histolytica; oral 10 mg/kg/day, 1 day) | A.D.I. (average degree of infection) (E. Histolytica; oral 10 mg/kg/day, 1 day) | Parasitological Cure Negative/Total (E. Histolytica; oral 10 mg/kg/day, 3 days) | A.D.I. (average degree of infection) (E. Histolytica; oral 10 mg/kg/day, 3 days) | Parasitological Cure Negative/Total (E. Histolytica; oral 12 mg/kg/day, 6 days) | A.D.I. (average degree of infection) (E. Histolytica; oral 12 mg/kg/day, 6 days) | Parasitological Cure Negative/Total (E. Histolytica; oral 25 mg/kg/day, 6 days) | A.D.I. (average degree of infection) (E. Histolytica; oral 25 mg/kg/day, 6 days) | potency of standard antibiotic sulfate salt [1]
1 | NC[C@@H]1O[C@H](O[C@H]2[C@@H](O)[C@H](O[C@@H]3[C@@H](O)[C@H](N)C[C@H](N)[C@H]3O[C@H]3O[C@H](CO)[C@@H](O)[C@H](O)[C@H]3N)O[C@@H]2CO)[C@H](N)[C@@H](O)[C@@H]1O [Paromomycin] | 1/7 | 1.9 | 1/6 | 1.5 | 0/4 | 1.0 | 1/5 | 1.0 | 2/4 | 1.3 | 0/7 | 2.1 | 2/6 | 1.0 | 4/8 | 0.8 | 6/7 | 0 | –
2 | CN[C@@H]1[C@@H](O)[C@@H](O[C@@H]2[C@@H](O)[C@H](O[C@H]3O[C@H]([C@@H](C)O)[C@@H](O)[C@H](O)[C@H]3N)[C@@H](N)C[C@H]2N)OC[C@]1(C)O [standard antibiotic sulfate salt] | – | – | – | – | – | – | – | – | – | – | – | – | – | – | – | – | – | – | about 750 mcg/mg
